Data reported in patent publication US20100204203A1, “Chemical Compounds 637: Pyridopyrimidinediones as PDE4 Inhibitors” (priority 2007, published 2010).

molecular target: recombinant Human Phosphodiesterase B2 (PDE4B2) (Homo sapiens, UniProt Q07343); assay: Human Phosphodiesterase B2 Radiometric Assay (yttrium silicate SPA beads, [3H]cyclic AMP); assay type: biochemical; details: recombinant human PDE4B2, radiometric SPA assay, 8 nM [3H]cyclic AMP; read-out: PDE4B2 pIC50 (converted)
Experimental: Human Phosphodiesterase B2 Radiometric Assay
The assay uses recombinant Human Phosphodiesterase B2 (PDE4B2) produced in house (PrAZL0163), stored at −20° C. This assay is based on the observation that 5′AMP, the product of the reaction catalysed by PDE4, binds preferentially to yttrium silicate SPA beads (Amersham Biosciences, UK) compared to the substrate, cAMP. Compounds at the appropriate concentration were preincubated at 30 C for 30 min with an assay buffer containing 50 mM HEPES (pH 7.5), 8.3 mM MgCl2, 1.7 mM EGTA, 0.01% (w/v) Brij° 35 and 0.1 mg/mL recombinant PDE4B2. The reaction was started by the addition of [3H]cyclic AMP to give a final concentration of 8 nM, and was stopped 20 minutes after the addition of the substrate by the addition of yttrium silicate SPA beads containing 18 mM Zn SO4. Bound [3H]cyclic AMP was measured using a Topcount NXT (Packard Bioscience, UK). pIC50 values (presented in Table 15) were determined using Xlfit3 curve fitting, using model 205.

Chain of recombinant Human Phosphodiesterase B2 (PDE4B2) (Q07343 1-564 isoform Q07343-2): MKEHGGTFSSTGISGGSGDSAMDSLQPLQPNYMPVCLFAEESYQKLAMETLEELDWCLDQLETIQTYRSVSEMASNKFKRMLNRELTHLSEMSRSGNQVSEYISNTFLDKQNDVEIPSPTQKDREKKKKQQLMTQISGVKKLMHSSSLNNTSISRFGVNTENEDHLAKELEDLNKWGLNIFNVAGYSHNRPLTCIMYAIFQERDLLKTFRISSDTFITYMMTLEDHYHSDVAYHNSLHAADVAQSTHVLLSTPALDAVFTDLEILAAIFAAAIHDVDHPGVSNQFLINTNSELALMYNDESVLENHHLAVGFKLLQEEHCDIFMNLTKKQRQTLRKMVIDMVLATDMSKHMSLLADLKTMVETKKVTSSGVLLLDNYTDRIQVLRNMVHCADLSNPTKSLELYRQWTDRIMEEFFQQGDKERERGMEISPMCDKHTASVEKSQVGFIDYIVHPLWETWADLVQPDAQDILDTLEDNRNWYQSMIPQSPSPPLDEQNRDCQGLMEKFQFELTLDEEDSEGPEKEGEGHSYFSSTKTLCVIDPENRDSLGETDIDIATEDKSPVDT

| IC50 [nM] | SMILES |
| --- | --- |
| 2 | CN(Cc1cn2cc(F)ccc2n1)[C@H]1CC[C@@H](n2c(=O)c3cc(F)cnc3n(-c3cccc(-c4ccc(O)cc4CN4CCOCC4)c3)c2=O)CC1 [Example 286, 6-fluoro-3-{cis-4-[[(6-fluoroimidazo[1,2-a]pyridin-2-yl)methyl](methyl)amino]cyclohexyl}-1-[4′-hydroxy-2′-(morpholin-4-ylmethyl)biphenyl-3-yl]pyrido[2,3-d]pyrimidine-2,4(1H,3H)-dione] |
| 0.00631 | CC(=O)N1CCN(Cc2ccc(-c3cccc(-n4c(=O)n([C@H]5CC[C@@H](NC(=O)c6cn7c(n6)CCCC7)CC5)c(=O)c5cc(F)cnc54)c3)cc2)CC1 [Example 218, N-{cis-4-[1-{4′-[(4-acetylpiperazin-1-yl)methyl]biphenyl-3-yl}-6-fluoro-2,4-dioxo-1,4-dihydropyrido[2,3-d]pyrimidin-3(2H)-yl]cyclohexyl}-5,6,7,8-tetrahydroimidazo[1,2-a]pyridine-2-carboxamide] |
| 0.01 | C[C@H]1COCCN1Cc1cc(O)ccc1-c1cccc(-n2c(=O)n([C@H]3CC[C@@H](NCc4cn5cc(F)ccc5n4)CC3)c(=O)c3cc(F)cnc32)c1 [Example 317, 6-fluoro-3-(cis-4-{[(6-fluoroimidazo[1,2-a]pyridin-2-yl)methyl]amino}cyclohexyl)-1-(4′-hydroxy-2′-{[(3S)-3-methylmorpholin-4-yl]methyl}biphenyl-3-yl)pyrido[2,3-d]pyrimidine-2,4(1H,3H)-dione] |
| 0.0316 | CCCCc1ccc(C(=O)N[C@H]2CC[C@@H](n3c(=O)c4cc(F)cnc4n(-c4cccc(-c5ccc(CN6CCCNCC6)cc5)c4)c3=O)CC2)nc1 [Example 351, 5-butyl-N-{cis-4-[1-[4′-(1,4-diazepan-1-ylmethyl)biphenyl-3-yl]-6-fluoro-2,4-dioxo-1,4-dihydropyrido[2,3-d]pyrimidin-3(2H)-yl]cyclohexyl}pyridine-2-carboxamide] |
| 0.0158 | Cc1cccc(C(=O)N[C@H]2CC[C@@H](n3c(=O)c4cc(F)cnc4n(-c4cccc(-c5ccc(CN6CCC(N7CCCCC7)CC6)cc5)c4)c3=O)CC2)n1 [Example 299, N-{cis-4-[1-[4′-(1,4′-bipiperidin-1′-ylmethyl)biphenyl-3-yl]-6-fluoro-2,4-dioxo-1,4-dihydropyrido[2,3-d]pyrimidin-3(2H)-yl]cyclohexyl}-6-methylpyridine-2-carboxamide] |
| 0.1 | CC(C)N1CCN(Cc2ccc(-c3cccc(-n4c(=O)n([C@H]5CC[C@@H](NC(=O)CC6CCOCC6)CC5)c(=O)c5cc(F)cnc54)c3)cc2)CC1 [Example 234, N-{cis-4-[6-fluoro-1-{4′-[(4-isopropylpiperazin-1-yl)methyl]biphenyl-3-yl}-2,4-dioxo-1,4-di-hydropyrido[2,3-d]pyrimidin-3(2H)-yl]cyclohexyl}-2-(tetrahydro-2H-pyran-4-yl)acetamide] |
| 0.794 | O=c1c2cc(F)cnc2n(-c2cccc(-c3ccc(O)cc3CN3CCOCC3)c2)c(=O)n1[C@H]1CC[C@@H](NCc2cccc(F)c2O)CC1 [Example 280, 6-fluoro-3-{cis-4-[(3-fluoro-2-hydroxybenzyl)amino]cyclohexyl}-1-[4′-hydroxy-2′-(morpholin-4-ylmethyl)biphenyl-3-yl]pyrido[2,3-d]pyrimidine-2,4(1H,3H)-dione] |
| 0.00631 | Cc1cccc(C(=O)N[C@H]2CC[C@@H](n3c(=O)c4cc(F)cnc4n(-c4cccc(-c5ccc(CN6CCN(C(C)C)CC6)cc5)c4)c3=O)CC2)n1 [Example 242, N-{cis-4-[6-fluoro-1-{4′-[(4-isopropylpiperazin-1-yl)methyl]biphenyl-3-yl}-2,4-dioxo-1,4-di-hydropyrido[2,3-d]pyrimidin-3(2H)-yl]cyclohexyl}-6-methyl-pyridine-2-carboxamide] |
| 0.398 | CC(C)[C@@H](N)C(=O)N[C@H]1CC[C@@H](n2c(=O)c3cc(F)cnc3n(-c3cccc(-c4ccc(CN5CCCN(C)CC5)cc4)c3)c2=O)CC1 [Example 313, N-{cis-4-[6-fluoro-1-{4′-[(4-methyl-1,4-diazepan-1-yl)methyl]biphenyl-3-yl}-2,4-dioxo-1,4-dihydropyrido[2,3-d]pyrimidin-3(2H)-yl]cyclohexyl}-D-valinamide] |
| 0.251 | O=C(N[C@H]1CC[C@@H](n2c(=O)c3cc(F)cnc3n(-c3cccc(-c4ccc(CN5CCCOCC5)cc4)c3)c2=O)CC1)C1CC1 [Example 306, N-{cis-4-[6-fluoro-1-[4′-(1,4-oxazepan-4-ylmethyl)biphenyl-3-yl]-2,4-dioxo-1,4-dihydropyrido[2,3-d]pyrimidin-3(2H)-yl]cyclohexyl} cyclopropanecarboxamide] |

Second part, the compound before the results:

| SMILES | IC50 [nM] |
| --- | --- |
| Cc1ccc(-c2cccc(-n3c(=O)n([C@H]4CC[C@@H](N)CC4)c(=O)c4cc(F)cnc43)c2)cc1 [Example 47, 3-(cis-4-aminocyclohexyl)-6-fluoro-1-(4′-methylbiphenyl-3-yl)pyrido[2,3-d]pyrimidine-2,4(1H,3H)-dione] | 2 |
| O=C(N[C@H]1CC[C@@H](n2c(=O)c3cc(F)cnc3n(-c3cccc(-c4ccc(O)cc4)c3)c2=O)CC1)c1cn2cc(F)ccc2n1 [Example 22, 6-fluoro-N-{cis-4-[6-fluoro-1-(4′-hydroxybiphenyl-3-yl)-2,4-dioxo-1,4-dihydropyrido[2,3-d]pyrimidin-3(2H)-yl]cyclohexyl}imidazo[1,2-a]pyridine-2-carboxamide.] | 0.0251 |
| O=C(N[C@H]1CC[C@@H](n2c(=O)c3cc(F)cnc3n(-c3cccc(-c4ccccc4)c3)c2=O)CC1)c1cn2ccccc2n1 [Example 3, N-[cis-4-(1-biphenyl-3-yl-6-fluoro-2,4-dioxo-1,4-dihydropyrido[2,3-d]pyrimidin-3(2H)-yl)cyclohexyl]imidazo[1,2-a]pyridine-2-carboxamide] | 0.0316 |
| CC(C)(C)OC(=O)N1CCN(Cc2ccc(-c3cccc(-n4c(=O)n([C@H]5CC[C@@H](NC(=O)c6cn7cc(F)ccc7n6)CC5)c(=O)c5cc(F)cnc54)c3)cc2)CC1 [Example 51] | 0.0398 |
| C[N+](C)(C)Cc1ccc(-c2cccc(-n3c(=O)n([C@H]4CC[C@@H](NC(=O)c5cn6cc(F)ccc6n5)CC4)c(=O)c4cc(F)cnc43)c2)cc1 [Example 87, {3-[6-fluoro-3-(cis-4-{[(6-fluoroimidazo[1,2-a]pyridin-2-yl)carbonyl]amino}cyclohexyl)-2,4-dioxo-3,4-dihydropyrido[2,3-a]pyrimidin-1(2H)-yl]biphenyl-4-yl]-N,N,N-trimethylmethanaminium iodide] | 0.316 |
| O=C(N[C@H]1CC[C@@H](n2c(=O)c3cc(F)cnc3n(-c3cccc(-c4ccc(CN5CCCCC5)cc4)c3)c2=O)CC1)c1cn2c(n1)CCCC2 [Example 119, N-{cis-4-[6-fluoro-2,4-dioxo-1-[4′-(piperidin-1-ylmethyl)biphenyl-3-yl]-1,4-dihydropyrido[2,3-d]pyrimidin-3(2H)-yl]cyclohexyl}-5,6,7,8-tetrahydroimidazo[1,2-a]pyridine-2-carboxamide] | 0.316 |
| O=C(N[C@H]1CC[C@@H](n2c(=O)c3cc(F)cnc3n(-c3cccc(-c4ccc(OCCO)cc4)c3)c2=O)CC1)c1cn2cc(F)ccc2n1 [Example 58, 6-fluoro-N-{cis-4-[6-fluoro-1-[4′-(2-hydroxyethoxy)biphenyl-3-yl]-2,4-dioxo-1,4-dihydropyrido[2,3-d]pyrimidin-3(2H)-yl]cyclohexyl}imidazo[1,2-a]pyridine-2-carboxamide] | 0.0158 |
| COCCN(C)Cc1ccc(-c2cccc(-n3c(=O)n([C@H]4CC[C@@H](NC(=O)c5cc(C)n(C)n5)CC4)c(=O)c4cc(F)cnc43)c2)cc1 [Example 217, N-{cis-4-[6-fluoro-1-(4′-{[(2-methoxyethyl)(methyl)amino]methyl}biphenyl-3-yl)-2,4-dioxo-1,4-dihydropyrido[2,3-d]pyrimidin-3(2H)-yl]cyclohexyl}-1,5-dimethyl-1H-pyrazole-3-carboxamide] | 0.0316 |
| O=C(N[C@H]1CC[C@@H](n2c(=O)c3cc(F)cnc3n(-c3cccc(-c4ccc(CN5CC[C@@H](O)C5)cc4)c3)c2=O)CC1)c1cn2cc(F)ccc2n1 [Example 56, 6-fluoro-N-{cis-4-[6-fluoro-1-(4′-{[(3R)-3-hydroxypyrrolidin-1-yl]methyl}biphenyl-3-yl)-2,4-dioxo-1,4-dihydropyrido[2,3-d]pyrimidin-3(2H)-yl]cyclohexyl}imidazo[1,2-a]pyridine-2-carboxamide] | 0.0251 |
| O=C(N[C@H]1CC[C@@H](n2c(=O)c3cc(F)cnc3n(-c3cccc(-c4ccccc4CN4CCOCC4)c3)c2=O)CC1)c1cn2cc(F)ccc2n1 [Example 19, 6-fluoro-N-{cis-4-[6-fluoro-1-[2′-(morpholin-4-ylmethyl)biphenyl-3-yl]-2,4-dioxo-1,4-dihydropyrido[2,3-d]pyrimidin-3(2H)-yl]cyclohexyl}imidazo[1,2-a]pyridine-2-carboxamide.] | 0.00316 |
| CN(C)CCN(C)Cc1ccc(-c2cccc(-n3c(=O)n([C@H]4CC[C@@H](NC(=O)c5cn6c(n5)CCCC6)CC4)c(=O)c4cc(F)cnc43)c2)cc1 [Example 133, N-{cis-4-[1-(4′-{[[2-(dimethylamino)ethyl](methyl)amino]methyl}biphenyl-3-yl)-6-fluoro-2,4-dioxo-1,4-dihydropyrido[2,3-d]pyrimidin-3(2H)-yl]cyclohexyl}-5,6,7,8-tetrahydroimidazo[1,2-a]pyridine-2-carboxamide] | 0.01 |
